# Publication PMC8550792, “Evolution of kinase polypharmacology across HSP90 drug discovery” (Cell Chemical Biology, 2021)
# Legend:
# Experiment in all cases: biochemical
# Format in all cases: biochemical
# 382 unique human kinases [1] = target: T1, 382 unique human kinases (Homo sapiens, UniProt Q8TDC3); settings: kinase BRSK1, compound 10 uM; for remaining activity at 10 µM: read-out: % Enzyme Activity (relative to DMSO controls)
# T1 construct: purchased Reaction Biology (HotSpot contract assay)
# T1 sequence (Q8TDC3 1-778): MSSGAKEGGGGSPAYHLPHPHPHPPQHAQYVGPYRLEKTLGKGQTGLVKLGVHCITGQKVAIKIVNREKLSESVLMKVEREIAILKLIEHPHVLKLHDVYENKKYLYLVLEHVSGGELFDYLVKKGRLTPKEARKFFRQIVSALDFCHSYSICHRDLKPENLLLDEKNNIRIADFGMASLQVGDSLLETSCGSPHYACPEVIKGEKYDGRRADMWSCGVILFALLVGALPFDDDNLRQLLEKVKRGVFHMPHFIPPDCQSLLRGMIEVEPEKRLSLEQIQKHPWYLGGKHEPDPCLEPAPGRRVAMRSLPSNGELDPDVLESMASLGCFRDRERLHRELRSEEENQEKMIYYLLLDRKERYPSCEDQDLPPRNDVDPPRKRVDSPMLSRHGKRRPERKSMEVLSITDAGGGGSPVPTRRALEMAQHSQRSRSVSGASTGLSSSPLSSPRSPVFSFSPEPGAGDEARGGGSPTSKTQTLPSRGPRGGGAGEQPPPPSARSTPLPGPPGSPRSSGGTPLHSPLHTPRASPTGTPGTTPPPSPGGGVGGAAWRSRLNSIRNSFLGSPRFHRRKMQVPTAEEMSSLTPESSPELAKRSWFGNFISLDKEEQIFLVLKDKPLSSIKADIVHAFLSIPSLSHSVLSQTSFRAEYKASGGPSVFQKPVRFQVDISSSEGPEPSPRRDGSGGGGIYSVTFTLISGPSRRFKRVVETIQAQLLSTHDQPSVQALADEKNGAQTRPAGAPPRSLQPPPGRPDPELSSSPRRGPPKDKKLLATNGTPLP
# 382 unique human kinases [2] = target: T2, 382 unique human kinases (Homo sapiens, UniProt P36897); settings: kinase ALK5/TGFBR1, compound 10 uM; for remaining activity at 10 µM: read-out: % Enzyme Activity (relative to DMSO controls)
# T2 construct: purchased Reaction Biology (HotSpot contract assay)
# T2 sequence (P36897 34-503): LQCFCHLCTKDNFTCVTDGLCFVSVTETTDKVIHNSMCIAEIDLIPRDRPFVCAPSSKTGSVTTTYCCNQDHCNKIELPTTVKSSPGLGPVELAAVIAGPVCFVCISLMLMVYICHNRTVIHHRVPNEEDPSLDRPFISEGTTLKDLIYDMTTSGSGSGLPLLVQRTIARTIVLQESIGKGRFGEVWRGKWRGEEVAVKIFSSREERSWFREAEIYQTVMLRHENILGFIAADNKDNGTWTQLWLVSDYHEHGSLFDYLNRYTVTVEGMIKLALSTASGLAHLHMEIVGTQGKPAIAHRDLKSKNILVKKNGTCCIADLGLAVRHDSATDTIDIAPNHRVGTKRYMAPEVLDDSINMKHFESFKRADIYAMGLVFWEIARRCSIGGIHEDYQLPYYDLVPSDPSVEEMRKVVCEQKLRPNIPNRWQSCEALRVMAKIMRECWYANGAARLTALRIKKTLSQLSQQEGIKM
# 382 unique human kinases [3] = target: T3, 382 unique human kinases (Homo sapiens, UniProt P53778); settings: P38g, compound at 10 uM, duplicate values; for remaining activity at 10 µM: read-out: % Enzyme Activity (relative to DMSO controls)
# T3 construct: purchased Reaction Biology (HotSpot contract assay)
# T3 sequence (P53778 1-367): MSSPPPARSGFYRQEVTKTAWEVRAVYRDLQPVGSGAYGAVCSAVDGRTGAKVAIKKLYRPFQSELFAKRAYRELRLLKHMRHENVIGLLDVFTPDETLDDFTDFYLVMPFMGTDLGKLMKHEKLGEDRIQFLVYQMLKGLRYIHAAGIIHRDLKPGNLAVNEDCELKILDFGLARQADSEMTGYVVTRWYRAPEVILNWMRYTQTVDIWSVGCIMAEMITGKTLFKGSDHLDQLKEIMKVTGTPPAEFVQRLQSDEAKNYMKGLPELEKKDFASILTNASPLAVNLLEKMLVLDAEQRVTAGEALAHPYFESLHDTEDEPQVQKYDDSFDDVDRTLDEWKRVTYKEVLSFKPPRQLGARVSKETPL
# 382 unique human kinases [4] = target: T4, 382 unique human kinases (Homo sapiens, UniProt P08581, T1173I); settings: c-MET (T1173I), compound at 10 uM, duplicate values; for remaining activity at 10 µM: read-out: % Enzyme Activity (relative to DMSO controls)
# T4 construct: purchased Reaction Biology (HotSpot contract assay)
# 382 unique human kinases [5] = target: T5, 382 unique human kinases (Homo sapiens, UniProt Q8NE63); settings: HIPK4, 10 uM; for remaining activity at 10 µM: read-out: % Enzyme Activity (relative to DMSO controls)
# T5 construct: purchased Reaction Biology (HotSpot contract assay)
# T5 sequence (Q8NE63 1-616): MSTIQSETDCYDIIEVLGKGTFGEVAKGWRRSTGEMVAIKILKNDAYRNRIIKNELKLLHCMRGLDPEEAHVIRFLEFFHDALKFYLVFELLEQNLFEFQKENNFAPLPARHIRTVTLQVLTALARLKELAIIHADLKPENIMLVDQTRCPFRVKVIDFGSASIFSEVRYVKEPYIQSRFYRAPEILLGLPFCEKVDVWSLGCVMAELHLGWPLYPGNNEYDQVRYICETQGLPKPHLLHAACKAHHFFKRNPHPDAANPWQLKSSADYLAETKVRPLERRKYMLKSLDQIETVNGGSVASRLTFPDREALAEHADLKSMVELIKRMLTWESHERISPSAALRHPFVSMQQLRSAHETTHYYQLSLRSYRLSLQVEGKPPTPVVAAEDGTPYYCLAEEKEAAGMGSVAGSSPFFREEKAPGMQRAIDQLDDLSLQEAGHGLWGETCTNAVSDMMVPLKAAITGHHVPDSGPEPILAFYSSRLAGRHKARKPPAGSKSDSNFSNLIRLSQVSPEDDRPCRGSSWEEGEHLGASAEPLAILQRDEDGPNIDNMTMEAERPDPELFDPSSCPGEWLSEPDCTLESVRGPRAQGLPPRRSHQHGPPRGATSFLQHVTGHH
# 382 unique human kinases [6] = target: T6, 382 unique human kinases (Homo sapiens, UniProt Q15119); settings: PDK2/PDHK2, [ATP] 15 µM
# T6 construct: purchased Reaction Biology (HotSpot contract assay)
# 382 unique human kinases [7] = target: T7, 382 unique human kinases (Homo sapiens, UniProt P00533, DEL747-749); settings: EGFR (d747-749), 10 uM; for remaining activity at 10 µM: read-out: % Enzyme Activity (relative to DMSO controls)
# T7 construct: purchased Reaction Biology (HotSpot contract assay)
# 382 unique human kinases [8] = target: T8, 382 unique human kinases (Homo sapiens, UniProt P42684); settings: ABL2/ARG, [ATP] 30 µM
# T8 construct: purchased Reaction Biology (HotSpot contract assay)
# T8 sequence (P42684 whole entry): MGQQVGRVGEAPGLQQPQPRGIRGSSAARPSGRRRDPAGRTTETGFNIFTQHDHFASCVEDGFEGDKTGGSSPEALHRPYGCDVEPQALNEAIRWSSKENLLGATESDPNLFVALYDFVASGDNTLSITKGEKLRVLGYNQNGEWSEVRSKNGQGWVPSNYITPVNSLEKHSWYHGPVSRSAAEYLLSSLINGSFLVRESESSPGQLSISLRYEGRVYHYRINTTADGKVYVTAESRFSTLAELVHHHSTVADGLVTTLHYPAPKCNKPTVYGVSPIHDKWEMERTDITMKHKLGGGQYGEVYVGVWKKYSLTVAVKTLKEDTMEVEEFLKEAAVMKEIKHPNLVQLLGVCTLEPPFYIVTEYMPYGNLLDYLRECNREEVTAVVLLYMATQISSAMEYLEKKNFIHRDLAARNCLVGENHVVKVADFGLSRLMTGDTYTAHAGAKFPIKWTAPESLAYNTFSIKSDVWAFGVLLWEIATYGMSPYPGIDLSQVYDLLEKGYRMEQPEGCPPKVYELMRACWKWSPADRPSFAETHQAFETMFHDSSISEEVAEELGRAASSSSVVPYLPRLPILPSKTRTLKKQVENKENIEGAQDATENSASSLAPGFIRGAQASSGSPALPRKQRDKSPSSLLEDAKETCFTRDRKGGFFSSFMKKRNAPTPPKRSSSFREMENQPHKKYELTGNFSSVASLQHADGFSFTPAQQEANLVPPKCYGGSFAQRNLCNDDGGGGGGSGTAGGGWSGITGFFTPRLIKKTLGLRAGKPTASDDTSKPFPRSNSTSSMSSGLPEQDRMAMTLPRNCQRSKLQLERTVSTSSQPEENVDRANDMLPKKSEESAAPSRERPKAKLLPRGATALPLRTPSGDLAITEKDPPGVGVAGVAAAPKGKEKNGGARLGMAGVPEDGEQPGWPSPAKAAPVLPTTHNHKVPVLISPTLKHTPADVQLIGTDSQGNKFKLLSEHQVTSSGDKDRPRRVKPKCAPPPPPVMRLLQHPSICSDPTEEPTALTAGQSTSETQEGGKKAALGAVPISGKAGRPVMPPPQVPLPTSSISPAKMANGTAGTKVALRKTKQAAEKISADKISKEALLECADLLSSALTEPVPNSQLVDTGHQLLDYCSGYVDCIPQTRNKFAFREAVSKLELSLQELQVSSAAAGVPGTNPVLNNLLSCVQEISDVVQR
# 382 unique human kinases [9] = target: T9, 382 unique human kinases (Homo sapiens, UniProt Q07912); settings: ACK1, [ATP] 100 µM, compound 10 uM; for remaining activity at 10 µM: read-out: % Enzyme Activity (relative to DMSO controls)
# T9 construct: purchased Reaction Biology (HotSpot contract assay)
# T9 sequence (Q07912 whole entry): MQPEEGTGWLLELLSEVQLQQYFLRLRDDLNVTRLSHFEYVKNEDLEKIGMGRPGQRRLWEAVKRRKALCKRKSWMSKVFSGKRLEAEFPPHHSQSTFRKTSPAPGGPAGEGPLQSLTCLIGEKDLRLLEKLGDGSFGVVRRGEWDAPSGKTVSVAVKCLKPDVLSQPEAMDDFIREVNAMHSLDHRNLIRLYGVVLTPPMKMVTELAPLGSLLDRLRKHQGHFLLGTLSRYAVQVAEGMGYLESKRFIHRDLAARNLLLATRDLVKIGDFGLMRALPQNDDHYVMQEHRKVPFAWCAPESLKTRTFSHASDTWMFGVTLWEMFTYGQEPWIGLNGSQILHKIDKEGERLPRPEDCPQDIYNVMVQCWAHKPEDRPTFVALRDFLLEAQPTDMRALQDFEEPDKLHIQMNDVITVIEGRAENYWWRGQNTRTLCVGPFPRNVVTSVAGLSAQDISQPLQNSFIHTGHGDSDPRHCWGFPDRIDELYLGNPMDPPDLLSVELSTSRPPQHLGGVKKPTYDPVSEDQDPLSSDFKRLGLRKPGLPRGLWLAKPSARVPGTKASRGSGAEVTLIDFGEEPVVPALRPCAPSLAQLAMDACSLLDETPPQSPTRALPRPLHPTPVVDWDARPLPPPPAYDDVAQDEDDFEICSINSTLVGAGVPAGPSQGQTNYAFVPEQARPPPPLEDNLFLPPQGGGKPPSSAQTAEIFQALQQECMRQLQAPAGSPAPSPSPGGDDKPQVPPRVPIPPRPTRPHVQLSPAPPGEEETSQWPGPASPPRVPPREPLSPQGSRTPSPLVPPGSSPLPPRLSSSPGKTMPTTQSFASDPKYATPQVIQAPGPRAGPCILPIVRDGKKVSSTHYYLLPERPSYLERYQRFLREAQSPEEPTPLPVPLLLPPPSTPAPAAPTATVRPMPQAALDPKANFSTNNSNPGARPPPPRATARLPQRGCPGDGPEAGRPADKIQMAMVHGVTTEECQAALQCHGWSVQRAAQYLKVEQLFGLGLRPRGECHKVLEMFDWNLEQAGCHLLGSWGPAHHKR
# 382 unique human kinases [10] = target: T10, 382 unique human kinases (Homo sapiens, UniProt O75116); settings: ROCK2, 10 uM; for remaining activity at 10 µM: read-out: % Enzyme Activity (relative to DMSO controls)
# T10 construct: purchased Reaction Biology (HotSpot contract assay)
# T10 sequence (O75116 whole entry): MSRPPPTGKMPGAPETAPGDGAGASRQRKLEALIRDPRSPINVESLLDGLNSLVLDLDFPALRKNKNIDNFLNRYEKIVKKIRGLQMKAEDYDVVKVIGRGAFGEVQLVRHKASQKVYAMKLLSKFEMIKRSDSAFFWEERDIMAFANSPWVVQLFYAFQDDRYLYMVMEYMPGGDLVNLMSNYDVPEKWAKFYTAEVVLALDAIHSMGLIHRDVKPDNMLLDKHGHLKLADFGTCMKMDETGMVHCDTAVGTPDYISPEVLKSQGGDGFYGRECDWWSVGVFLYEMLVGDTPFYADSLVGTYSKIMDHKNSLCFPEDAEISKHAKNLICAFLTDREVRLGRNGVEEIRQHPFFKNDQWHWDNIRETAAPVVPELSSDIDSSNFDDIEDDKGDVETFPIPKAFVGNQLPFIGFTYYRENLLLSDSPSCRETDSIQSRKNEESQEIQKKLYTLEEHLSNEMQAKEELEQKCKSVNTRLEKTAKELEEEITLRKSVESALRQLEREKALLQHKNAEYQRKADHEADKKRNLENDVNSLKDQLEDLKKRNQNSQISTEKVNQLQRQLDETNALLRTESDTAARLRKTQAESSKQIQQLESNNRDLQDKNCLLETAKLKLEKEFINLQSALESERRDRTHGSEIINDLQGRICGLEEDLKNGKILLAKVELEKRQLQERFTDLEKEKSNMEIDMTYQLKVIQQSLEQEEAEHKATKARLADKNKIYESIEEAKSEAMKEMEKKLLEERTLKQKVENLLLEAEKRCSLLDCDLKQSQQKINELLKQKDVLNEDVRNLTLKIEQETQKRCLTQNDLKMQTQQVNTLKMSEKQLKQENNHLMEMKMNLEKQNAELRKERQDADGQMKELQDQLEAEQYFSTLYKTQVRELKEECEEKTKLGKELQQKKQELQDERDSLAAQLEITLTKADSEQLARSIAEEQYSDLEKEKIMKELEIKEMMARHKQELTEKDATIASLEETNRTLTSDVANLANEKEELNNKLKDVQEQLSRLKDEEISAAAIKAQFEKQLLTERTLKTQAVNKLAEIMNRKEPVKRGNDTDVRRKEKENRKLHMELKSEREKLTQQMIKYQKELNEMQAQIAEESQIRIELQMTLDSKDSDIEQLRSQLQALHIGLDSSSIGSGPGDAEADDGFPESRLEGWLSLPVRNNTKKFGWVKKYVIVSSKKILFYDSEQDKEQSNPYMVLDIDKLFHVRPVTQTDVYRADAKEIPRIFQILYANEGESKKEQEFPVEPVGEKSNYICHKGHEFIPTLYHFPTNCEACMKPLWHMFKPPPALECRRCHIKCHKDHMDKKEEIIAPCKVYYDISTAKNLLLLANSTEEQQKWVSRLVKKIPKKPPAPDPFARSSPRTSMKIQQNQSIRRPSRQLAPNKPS
# [11] = compound 1 uM, read-out: % Enzyme Activity (relative to DMSO controls)
# [12] = compound 10 uM, read-out: % Enzyme Activity (relative to DMSO controls)
SMILES,remaining activity at 10 µM (382 unique human kinases [1]),remaining activity at 10 µM (382 unique human kinases [2]),remaining activity at 10 µM (382 unique human kinases [3]),remaining activity at 10 µM (382 unique human kinases [4]),remaining activity at 10 µM (382 unique human kinases [5]),remaining activity at 10 µM (382 unique human kinases [6]; [12]),remaining activity at 10 µM (382 unique human kinases [7]),remaining activity at 10 µM (382 unique human kinases [8]; [12]),remaining activity at 10 µM (382 unique human kinases [9]),remaining activity at 10 µM (382 unique human kinases [10]),further results
CC(C)c1cc(-c2n[nH]c(=O)n2-c2ccc3c(ccn3C)c2)c(O)cc1O [Ganetespib (STA9090)],81.4%,90.1%,119%,102%,64.4%,,,,,,
CC(C)c1cc(-c2n[nH]c(=O)n2-c2ccc3c(ccn3C)c2)c(O)cc1O [Ganetespib],,,,,,11.2%,96.5%,1.12%,47%,105%,remaining activity at 1 µM (382 unique human kinases [6]; [11]): 41.9%; remaining activity at 1 µM (382 unique human kinases [8]; [11]): 12.9%
CCNC(=O)c1noc(-c2cc(C(C)C)c(O)cc2O)c1-c1ccc(CN2CCOCC2)cc1 [Luminespib (AUY-922)],100%,94.7%,106%,118%,88.8%,,,,,,% Enzyme Activity (relative to DMSO controls) (382 unique human kinases [1]): 99.19%; % Enzyme Activity (relative to DMSO controls) (382 unique human kinases [2]): 93.53%; % Enzyme Activity (relative to DMSO controls) (382 unique human kinases [3]): 104.66%; % Enzyme Activity (relative to DMSO controls) (382 unique human kinases [4]): 114.35%; % Enzyme Activity (relative to DMSO controls) (382 unique human kinases [5]): 88.32%
CCNC(=O)c1noc(-c2cc(C(C)C)c(O)cc2O)c1-c1ccc(CN2CCOCC2)cc1 [Luminespib],,,,,,22.4%,99.3%,8.16%,89.5%,99.3%,% Enzyme Activity (relative to DMSO controls) (382 unique human kinases [6]; compound 10 uM): 20.58%; % Enzyme Activity (relative to DMSO controls) (382 unique human kinases [7]): 98.26%; % Enzyme Activity (relative to DMSO controls) (382 unique human kinases [8]; compound 10 uM): 7.82%; % Enzyme Activity (relative to DMSO controls) (382 unique human kinases [9]): 88.83%; % Enzyme Activity (relative to DMSO controls) (382 unique human kinases [10]): 98.18%
